# Assay results from US9586993B2, “CD44v6-derived peptides for treating pancreatic cancer” (AMCURE GMBH, priority 2012, dated 2017).
# Like-named read-outs stand apart in the source and are kept apart here. No end group written: not given here.
# Legend:
# Met = conditions: Matzke et al., Cancer Res. (2005), cited from earlier work
# L3.6p1 tumors = experiment: In vivo and ex vivo imaging with Pearl Imager of mice bearing L3.6p1 tumors; design: species or system mouse
# Protocol: In vivo imaging of the mice with the L3.6p1 tumors was performed using the Pearl™ Imager (LI-COR Biosciences, Bad Homburg, Germany) The system uses two lasers (685 and 785 nm) for excitation and a charge-coupled device detector for signal detection. The laser excitation enables a deep tissue penetration. With the near-infrared detection a high sensitivity due to the reduced tissue auto-fluorescence is achieved. In order to standardize the images we made use of the Pearl Cam Software. The animals were fed with chlorophyll-reduced food to reduce the fluorescence background one week before imaging (Regime 210, safe-diets, Augy, France). Prior to imaging the mice were anesthetized with 2.0% isoflurane. Animals were placed on the heated plate of the imager and continuous delivery of isoflurane was achieved through a nose cone in the imaging drawer. Images were captured at white light, 700 and 800 nm Animals were imaged prior to i.v. peptide injection and 24 h after injection with either DY681-labeled human v6 peptide or DY681-labeled rat v6 peptide as control Immediately after each imaging session animals were killed, tumor, liver and spleen isolated and scanned ex vivo at white light, 700 and 800 nm.
# L3.6p1 cells = experiment: Staining of L3.6p1 cells with DY681-labeled peptides; assay type: binding, human; conditions: DY681-labeled peptide
# Protocol: (§1) ASs6 or L3.6p1 cells were seeded at 5,000 cells/well of a Lab-Tek® Chamber Slide™ (Nunc, Napierville, Ill., USA). On the following day the cells were washed with cold PBS and fixed with 4% Formalin for 30 min at RT. Unspecific binding was blocked with 1% BSA in PBS for 1 hour at RT. The cells were incubated for 1 hour with the DY681-labeled peptides. After three washing steps with PBS the cover slips were mounted with Fluorescence Mounting Medium (Dako, Glostrup, Denmark) and the immunofluorescence was measured by a laser scanning confocal microscope Leica TCS2 SP2 (Exton, Pa., USA) and processed using Leica confocal software. A 20× objective was used for imaging.
# [1] = system: Met activation and downstream signaling to ERK; experiment: HGF-induced activation of Met and ERK in L3.6p1 cells (western blot); assay type: cell-based, human; conditions: HGF 10 ng/ml
# Protocol: (§2) Serum-starved cells (24 hours) were induced with the growth factor HGF (10 ng/mL) at 37° C. for 5 minutes. Where indicated, the cells were treated with peptides (100 ng/ml) prior to induction at 37° C. for 10 minutes (100 ng/mL CD44v6 peptide or control peptide). Following the induction with HGF, cells were washed with ice-cold phosphate-buffered saline (PBS). To detect activated Met and Erk, cells were lysed in sodium dodecyl sulfate (SDS)-sample buffer containing 100 mM dithiothreitol (DTT), boiled and subjected to western blot analysis using antibodies against phospho-Met and ERK. The loading controls were performed on the same blot after stripping (62.5 mM Tris, pH 6.8, 2% SDS, 0.8% DTT) by probing with the Met respectively ERK antibody. Blots were stained using the enhanced chemiluminescence system (Thermo Fisher Scientific, Schwerte, Germany). Bands in western blot analysis were quantified with the program Image J (National Institutes of Health).
# To expand the studies to human pancreatic tumors, the highly metastatic human pancreatic carcinoma cells L3.6p1 (Bruns, et al. Neoplasia (1999), 1(1):50-62) were investigated. These cells originate from the […] cells that have been passaged several times in the liver and the pancreas, a step that rendered them more and more metastatic. It was confirmed that Met is dependent on CD44v6 for its activation and signaling in these cells (FIG. 4A). The L3.6p1 cells were treated with HGF in the presence or absence of a human v6 peptide of SEQ ID NO: 2 or SEQ ID NO:6 and Met activation and downstream signaling to ERK was measured.
# [2] = system: HGF induced activation of the receptor tyrosine kinase Met and ERK; experiment: HGF-induced activation of Met and ERK in BSp73ASs6 cells (western blot); assay type: cell-based, rat; conditions: HGF 10 ng/ml, peptide added 10 min before induction
# Protocol: as §2
# The PEG-control peptide and PEG-rat CD44v6 peptide were compared for their ability to block HGF induced activation of the receptor tyrosine kinase Met and ERK. […]
# Activation of ERK and Met was determined by standard SDS and Western Blotting techniques using a phospho-Met and phospho-Erk specific antibody (phospho-Met clone D16 cell signaling, phospho-Erk p42/44 cell signaling)
# BSp73ASs6 cells = experiment: Staining of fixed BSp73ASs6 cells with DY681-labeled peptides; assay type: binding, rat; conditions: DY681-labeled peptide, one hour
# Protocol: as §1
# BSp73ASs6 tumors = conditions: rat, iv
# Protocol: In vivo imaging of the subcutaneously grown BSp73ASs6 tumors in BD10 or BDX rats was performed using the near infrared fluorescence (NIRF)-imaging system Optix MX2 (ART, Montreal, Canada) as described earlier (Napp et al., Int J Cancer (2010), 127:1958-1974). To avoid autofluorescence of fur, rats were shaved around the tumor prior to imaging. Subsequently, animals were anesthetized using 2% isoflurane and gently fixed on the devices' heated plate for the entire time of data acquisition. To reduce fluorescence background, rats were fed with chlorophyll-reduced food (Provimi Kliba AG, Kaiseraugst, Switzerland) for one week prior NIRF imaging. All in vivo analyses were preceded by native scans of animals without any injection of the fluorescent probe. For in vivo analysis, rats were injected with 200 DY681-labeled rat v6 11mer peptide or the human v6 11mer peptide via the tail vein. […]
# DY681 fluorescence was measured using excitation at 670 nm in combination with a 700 nm long-pass emission filter. […] Data sets were analyzed with OptiView (ART).
# For in vivo experiments, BSp73ASs6 cells were injected subcutaneously into syngeneic rats. […] The accumulation of the fluorescence was measured in the tumor region by Optix MX2 at the indicated time points. […] Then, in vivo binding kinetics of the Dy681-labeled v6 peptides to the subcutaneous tumors were determined.
# [3] = system: L3.6p1 pancreatic carcinoma cells; experiment: Human orthotopic model, L3.6p1 cells in the pancreas of nude mice; assay type: in vivo, mouse
# Protocol: In the case of the human orthotopic model, L3.6p1 pancreatic carcinoma cells (passage 24-26) were suspended in Hank's balanced salt solution (Invitrogen, Karlsruhe, Germany) after trypsinization. The cells were injected orthotopically in the pancreas of male nude mice as described (Bruns C J et al. (1999) Neoplasia 1(1):50-62). Two groups of 15 mice each were injected i.p. 7 days later with either the human v6 peptide respectively rat control peptide (20 μg). For all experiments described and depicted herein either the rat 14mer control peptide or the human 14mer peptide were used. All experiments were then repeated with the rat 5mer control peptide or the human 5mer peptide (N-R-W-H-E, SEQ ID NO: 2). […] The injection was repeated three times per week for 21 days. Two days after the last treatment the animals were killed.
# 7 μm thick paraffin sections were deparaffinized and rehydrated. For P-Met staining antigen unmasking was achieved by boiling the slides in 1 mM EDTA pH 8.0 followed by incubation for 15 minutes at a sub-boiling temperature, for CD31 staining the sections were treated with Proteinase K (8 μg/ml) for 10 min at 37° C. For immunofluorescence staining of P-Met, unspecific binding was blocked with 5% goat serum (DAKO, Glostrup, Denmark) (diluted in 1×PBS/0.3% Triton X-100) for 60 minutes. In the case of immunohistochemistry, endogenous peroxidases were at first blocked with 3% H2O2 in PBS followed by incubation with biotin blocking system (Dako, Glostrup, Denmark) and then unspecific binding was inhibited by incubation with 5% FCS in PBS. The sections were incubated with the P-Met antibody (D26, dilution 1:50 in 1×PBS/1% BSA/0.3% Triton X-100), Met antibody (C-28, dilution 1:50), GFP antibody (sc-101525, dilution 1:50) or antibody (5 μg/ml) over night or VFF18 (5 μg/ml) o/n at 4° C. After washing in PBS the sections were incubated with Alexa Fluor R 546 goat anti-rabbit (in case of immunofluorescence P-Met and Met staining, dilution 1:500) or a biotinylated secondary antibody (for immunohistochemical stainings rabbit anti-rat antibody for VFF18 and CD31, goat anti-rabbit for P-Met, cleaved Caspase-3 and cleaved Caspase-8 and rabbit anti-mouse for GFP, dilution 1:500) for 45 minutes. For DAB (3,3′-diaminobenzidine) staining the sections were treated with a streptavidin-peroxidase conjugate (Dako, Glostrup, Denmark) and developed with DAB substrate system (3,3′-diaminobenzidine; Biozol, Eching, Germany) For immunofluorescence DAPI was used for nuclear staining.
# The three CD44v6 specific compounds (v6 5mer, PEG840-v6 5mer and PEG2000-v6 5mer of human origin) and a control peptide were applied in three concentrations (2 μg, 20 μg, 200 μg per injection) three times per week i.p. for 4 weeks. One week before start of the treatment the L3.6p1 tumor cells were orthotopically implanted into nude mice.
# Animals were implanted orthotopically with L3.6p1 cells. Tumor growth was allowed for one week before the treatment with the linear v6 14mer, the cyclic v6 8mer as well as the control peptide (rat v6 14mer) was started. All peptides were injected three times per week at a concentration of 0.2, 2 and 10 μg per injection for 3 weeks. At the end of the treatment animals were sacrificed.
# A comparison of different CD44v6 peptide derivatives was performed in animals bearing a orthotopic L3.6p1 tumor. 10 groups of 5 animals each received a dose of 20 μg peptide per injection three times per week for 3 weeks with the compounds listed in Table 4. Three weeks after starting the treatment the animals were sacrificed and analyzed for macroscopic metastases and tumor volume.
# [4] = system: L3.6p1 pancreatic carcinoma cells; experiment: as above; assay type: in vivo, mouse; conditions: dose reduction experiment, 0.2 to 20 μg per injection three times per week for 3 weeks
substance,measurement,setting,value
A-R-W-H-A (ARWHA) [A-R-W-H-A (SEQ ID NO: 3)],inhibition of CD44v6 mediated activation of Met,Met,capable of abrogating Met activation
same,inhibition of CD44v6 mediated activation of Met,Met; listed as SEQ ID NO: 3,still active in inhibiting CD44v6 mediated activation of Met
"WFGNRWHEGYR (also: DY681 dye, position not given here) [DY681 human v6 peptide, human 11mer labeled with the fluorescent dye DY681]",fluorescence in the tumor in vivo,"L3.6p1 tumors; one i.v. injection of 20 μg, 24 h after injection",accumulated specifically in the tumor
same,"ex vivo fluorescence in primary tumors, livers and spleens",L3.6p1 tumors; organs excised 24 h after injection,binding not only to primary tumors but also to areas of the liver
same,binding to L3.6p1 cells in cell culture,L3.6p1 cells,bound to these cells in cell culture
same,inhibition of HGF-induced activation (phosphorylation) of Met and ERK,[1],inhibited Met activation in L3.6p1 cells
"WFENEWQGKNP (also: DY681 dye, position not given here) [DY681 rat v6 peptide]",inhibition of HGF-induced activation of Met and Erk,[2],inhibited Met activation
same,binding to BSp73ASs6 cells in tissue culture,BSp73ASs6 cells,bound to BSp73ASs6 cells in tissue culture
same,time of maximum fluorescence intensity over the tumor area,BSp73ASs6 tumors; in vivo,1 days
same,duration of high fluorescence intensity over the tumor area in vivo,BSp73ASs6 tumors,at least 2 days
"WFQNGWQGKNP (also: DY681 dye, position not given here) [DY681 mouse v6 peptide, mouse 11mer labeled with the fluorescent dye DY681, control, reference compound]",inhibition of HGF-induced activation of Met and Erk,[2],but not the mouse peptide inhibited Met activation
"cy[KGNRWHEG] (also: cyclic, ring type not given here) [cycl. 8 mer]",metastasis formation (liver),[3]; 2 μg per injection i.p. three times per week,blocked metastatic spreading at 2 and 20 μg per injection very efficiently
same,outgrowth / size of the primary tumor,"[3]; 20 μg per injection i.p. three times per week for three weeks, start one week after implantation",strongest reduction of tumor size
same,metastasis formation (liver),"[3]; 20 μg per injection i.p. three times per week, start one week after implantation, listed as cyclic 8mer",complete inhibition of metastasis
same,metastasis formation (liver),"[3]; 20 μg per injection i.p. three times per week, start one week after implantation, listed as cyclic v6 8mer",blocked metastatic spreading at 2 and 20 μg per injection very efficiently
same,size / growth of the primary tumor,[4]; listed as cyclic 8mer,reduces growth of the primary tumor
same,size / growth of the primary tumor,[4]; listed as cyclic v6 8mer,drastic effect on growth of the primary tumor
